Test results as given in publication PMC7413254 (Nature Communications, 2020).
Like-named read-outs stand apart in the source and are kept apart here.

Tests used:
non-expressing oocytes [1] = assay type: cell-based, Xenopus laevis; conditions: total [3H]CQ transport; for Uptake of [3H]CQ (% non-expressing oocyte control), trans-stimulation: non-expressing oocytes, normalised to the oocyte type control; for Uptake of [3H]CQ (% PfCRTDd2 control), trans-stimulation, non-expressing oocytes: mean ± SEM, SEM
Procedure, shortened: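 Oocytes (ten per treatment, ≥4 independent frogs/days) were preloaded by injecting VF-6 in 25 nL ND96 at pH 5.0, 5.5, 6.0 or 7.0, or Na^+-free choline buffer, then uptake run 1.5 h, 27.5 °C, ND96 pH 5.5 by default. Internal concentrations assumed ~400 nL oocyte volume.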

non-expressing oocytes [2] = experiment: cells; assay type: cell-based, Xenopus laevis; conditions: Xenopus laevis, total [3H]CQ transport; for inhibition at 500 µM: [test solute] = 0.5 mM; for inhibition at 1000 µM: [test solute] = 1 mM; for inhibition at 2000 µM: [test solute] = 2 mM
Procedure, shortened: (§1)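 Assay buffer ND96 (10 mM MES, 10 mM Tris-base) held at pH 5.5 to mimic vacuole lumen; uptake measured inward from this acidic medium over 1.5 h at 27.5 °C.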

PfCRT [3] = experiment: Test of solutes as potential co-substrates for influx of VF-6 via PfCRT into the oocyte; assay type: cell-based, Plasmodium falciparum; parameters: key: X: Compounds that have been tested as potential co-substrates but are not required for influx of VF-6 via PfCRT into the oocyte; conditions: X = tested
PfCRT [4] = experiment: Influx of VF-6 via PfCRT into the oocyte, solutes tested as potential co-substrates; assay type: cell-based, Plasmodium falciparum; parameters: key: X: Compounds that have been tested as potential co-substrates but are not required for influx of VF-6 via PfCRT into the oocyte; conditions: X marks the solute
PfCRT^Ecu1110 = PfCRT^Ecu1110 (Plasmodium falciparum, UniProt Q9N623, A220S/I356L/K76T/N326D); experiment: [3H]CQ uptake into Xenopus oocytes, cis-inhibition by unlabelled solute; assay type: cell-based
Procedure, shortened: as §1

PfCRT^Dd2 = PfCRT^Dd2 (Plasmodium falciparum, UniProt Q9N623, A220S/I356T/K76T/M74I/N326S/N75E/Q271E/R371I); experiment: as above; assay type: cell-based
Procedure, shortened: as §1

[5] = Oocyte, mean ± SEM, SEM, read-out: Uptake of [3H]CQ (% PfCRTDd2 control), cis-inhibition, non-expressing oocytes
[6] = non-expressing oocytes, normalised to the oocyte type control, read-out: Uptake of [3H]CQ (% non-expressing oocyte control), cis-inhibition
[7] = read-out: PfCRT-mediated [3H]CQ transport, cis-inhibition (% PfCRTEcu1110 control)
[8] = read-out: Uptake of [3H]CQ (% PfCRTDd2 control), cis-inhibition, PfCRTEcu1110, SEM
[9] = read-out: Uptake of [3H]CQ (% PfCRTEcu1110 control), cis-inhibition
[10] = read-out: [3H]CQ transport (% PfCRTEcu1110 control), cis-inhibition, PfCRTEcu1110, SEM
[11] = read-out: PfCRT-mediated [3H]CQ transport, cis-inhibition (% PfCRTDd2 control)
[12] = read-out: Uptake of [3H]CQ (% PfCRTDd2 control), cis-inhibition
[13] = read-out: Uptake of [3H]CQ (% PfCRTDd2 control), cis-inhibition, PfCRTDd2, SEM

Chain of PfCRT^Ecu1110 (Q9N623 whole entry A220S/I356L/K76T/N326D): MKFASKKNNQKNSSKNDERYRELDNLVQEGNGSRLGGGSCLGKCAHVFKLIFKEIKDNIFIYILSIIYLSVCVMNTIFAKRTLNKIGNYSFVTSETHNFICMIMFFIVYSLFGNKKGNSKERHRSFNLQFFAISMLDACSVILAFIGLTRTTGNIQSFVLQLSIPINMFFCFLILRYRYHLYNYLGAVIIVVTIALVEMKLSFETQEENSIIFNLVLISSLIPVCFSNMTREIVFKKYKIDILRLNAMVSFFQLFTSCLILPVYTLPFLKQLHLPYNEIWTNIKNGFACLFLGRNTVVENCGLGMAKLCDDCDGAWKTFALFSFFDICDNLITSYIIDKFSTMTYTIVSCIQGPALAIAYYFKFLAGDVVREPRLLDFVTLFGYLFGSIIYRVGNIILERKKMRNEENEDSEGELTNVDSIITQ
Chain of PfCRT^Dd2 (Q9N623 whole entry A220S/I356T/K76T/M74I/N326S/N75E/Q271E/R371I): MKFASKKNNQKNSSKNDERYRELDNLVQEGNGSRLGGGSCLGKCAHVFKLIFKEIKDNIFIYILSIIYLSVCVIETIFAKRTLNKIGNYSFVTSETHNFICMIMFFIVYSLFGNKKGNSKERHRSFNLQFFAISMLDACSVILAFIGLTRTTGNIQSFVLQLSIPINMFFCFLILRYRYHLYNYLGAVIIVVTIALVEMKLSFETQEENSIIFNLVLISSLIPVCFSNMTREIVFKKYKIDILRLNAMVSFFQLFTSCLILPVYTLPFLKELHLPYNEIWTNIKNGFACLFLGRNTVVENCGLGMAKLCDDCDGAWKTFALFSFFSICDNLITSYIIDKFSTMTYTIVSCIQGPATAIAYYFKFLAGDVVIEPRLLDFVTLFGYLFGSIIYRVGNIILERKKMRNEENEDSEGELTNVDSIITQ

In the case of N[C@@H](CS)C(=O)O [L-cysteine], the “Uptake of [3H]CQ (% non-expressing oocyte control), trans-stimulation” value (non-expressing oocytes [1]; [test solute]i = 5 mM) is reported as 98 ± 2.2 % non-expressing oocyte control, the “Uptake of [3H]CQ (% non-expressing oocyte control), trans-stimulation” value (non-expressing oocytes [1]; [test solute]i = 45 mM (30 mM for some solutes due to solubility)) is reported as 100 ± 4.2 % non-expressing oocyte control and the “Uptake of [3H]CQ (% PfCRTDd2 control), trans-stimulation, non-expressing oocytes” value (non-expressing oocytes [1]; [test solute]i = 5 mM (intracellular)) is reported as 3.1 ± 0.07 % PfCRTDd2 control. The “Uptake of [3H]CQ (% PfCRTDd2 control), trans-stimulation, non-expressing oocytes” value (non-expressing oocytes [1]; [test solute]i = 45 mM (intracellular; 30 mM for some solutes due to solubility)) was 2.2 ± 0.03 % PfCRTDd2 control, the inhibition at 500 µM (non-expressing oocytes [2]; [5]) was 2.1 ± 0.08% and the inhibition at 1000 µM (non-expressing oocytes [2]; [5]) was 3.4 ± 0.01%. For the same molecule, the inhibition at 2000 µM (non-expressing oocytes [2]; [5]) was 2.3 ± 0.1%, the inhibition at 500 µM (non-expressing oocytes [2]; [6]) was 99 ± 5.3% and the inhibition at 1000 µM (non-expressing oocytes [2]; [6]) was 100 ± 4.6%. The inhibition at 2000 µM (non-expressing oocytes [2]; [6]) was 99 ± 3.5%, the “Tested as potential co-substrate but not required for influx of VF-6 via PfCRT into the oocyte” value (PfCRT [3]) was “X” and the “Compounds that have been tested as potential co-substrates but are not required for influx of VF-6 via PfCRT into the oocyte” value (PfCRT [4]) was “X”. It also gave an inhibition at 500 µM (PfCRT^Ecu1110; [7]) of 94 ± 1.6%, an inhibition at 1000 µM (PfCRT^Ecu1110; [7]) of 87 ± 2.6% and an inhibition at 2000 µM (PfCRT^Ecu1110; [7]) of 98 ± 4.5%. For the same molecule, the inhibition at 500 µM (PfCRT^Ecu1110; [8]) was 31 ± 1%, the inhibition at 1000 µM (PfCRT^Ecu1110; [8]) was 29 ± 1.5% and the inhibition at 2000 µM (PfCRT^Ecu1110; [8]) was 33 ± 1.4%. The inhibition at 500 µM (PfCRT^Ecu1110; [9]) was 95 ± 4.2%, the inhibition at 1000 µM (PfCRT^Ecu1110; [9]) was 89 ± 5.5% and the inhibition at 2000 µM (PfCRT^Ecu1110; [9]) was 100 ± 7.1%. The inhibition at 500 µM (PfCRT^Ecu1110; [10]) was 28 ± 1.1%, the inhibition at 1000 µM (PfCRT^Ecu1110; [10]) was 26 ± 1.5% and the inhibition at 2000 µM (PfCRT^Ecu1110; [10]) was 30 ± 1.7%. The inhibition at 500 µM (PfCRT^Dd2; [11]) was 94 ± 4.1%, the inhibition at 1000 µM (PfCRT^Dd2; [11]) was 95 ± 3.6% and the inhibition at 2000 µM (PfCRT^Dd2; [11]) was 95 ± 2.8%. For the same molecule, the inhibition at 500 µM (PfCRT^Dd2; [12]) was 97 ± 9.2%, the inhibition at 2000 µM (PfCRT^Dd2; [12]) was 97 ± 3.1% and the inhibition at 500 µM (PfCRT^Dd2; [13]) was 97 ± 9.2%. It also gave an inhibition at 1000 µM (PfCRT^Dd2; [13]) of 96 ± 3.5%.
